The text below walks through data of patent US20100168228A1, “NOVEL CHEMOTHERAPEUTIC AGENTS AGAINST INFLAMMATION AND CANCER” (RELIANCE LIFE SCIENCES PVT. LTD., priority 2006, published 2010).

One experiment concerns RAW 264.7 cells. In words: Nitrite quantification (Griess) in LPS stimulated macrophages. It counts as cell-based, mouse. Particulars: RAW 264.7 + LPS (200 ng/ml) + 10 μM compound, 24 h; LPS + DMSO control 14.560, basal 0.782. The procedure:
NO2^− accumulation was used as an indicator of Nitric Oxide (NO) production in the medium as described previously (Green et al., 1982 Anal Biochem 126, 131-138). […] The isolated supernatants were mixed with an equal volume of Griess reagent (1% sulfanilamide, 0.1% naphthylenediamine dihydrochloride, and 2% phosphoric acid) and incubated at room temperature for 15 min. NaNO2 was used to generate a standard curve, and nitrite production was determined by measuring the optical density at 540 nm.
To estimate the anti-inflammatory effects of all the synthetic molecules listed in this study, we measured the accumulation of nitrite, the stable metabolite of NO, in the culture media using Griess reagent.
To investigate the effect of CAMVE on NO production, we measured the accumulation of nitrite, the stable metabolite of NO, in the culture media using Griess reagent. To investigate the effect of CAMVE on NO production, Raw 264.7 cells, pretreated with indicated concentrations of CAMVE for 1 h were incubated with LPS (250 ng/ml) for 24 h.

For another experiment, the system named is TNFα. The experiment in a line: Bioassay of TNFα production by LPS activated RAW 264.7 macrophages using L929 cell line. Particulars: Mus musculus; L929 + ActD + supernatant from LPS + compound (10 μM) treated RAW 264.7 macrophage; crystal violet; mean ± S.D. of triplicate; read-out: PERCENTAGE CELL SURVIVAL ± S.D. It counts as cell-based. Here is the method:
Measurement of TNFα in culture medium or supernatant is performed using immunoassay and bioassay. Bioassay was used for the measurement of bioactive TNFα production in the culture medium.
TNFα secretion into the medium by LPS activated macrophage was assayed using L929 tumorigenic murine cells (ATCC) specifically sensitive to TNFα. L929 cell cytotoxicity assay was performed by a modified method (Sano et al., The Journal of Immunology, 1999, 163: 387-395 The Journal of Immunology, 1999, 163: 387-395) based on that described elsewhere (Flick D A, Gifford G E. J Immunol Methods. 1984 Mar. 30; 68(1-2): 167-175). Briefly, the L929 cells (log phase cells) were seeded into a flat bottom 96 well plates (6×10^4/well) in 100 μl volume of RPMI 1640 containing 2% FCS and incubated overnight at 37° C. in a 5% CO2 incubator. A working dilution of the culture supernatant collected from LPS (200 ng/ml) activated macrophage in a volume of 100 μl per well was first tested to obtain 70-75% cytotoxicity equivalent to […] of recombinant TNFα standard to the TNFα sensitive L929 cell line. After incubation of the L929 cells appropriate fixed dilution of the culture supernatant collected from the compound treated (10 μM) wells, containing the LPS stimulated macrophages in a volume of 100 μl with 2 μg/ml Actinomycin D (Act D) was taken and added to the L929 cells and the cells were incubated at room temperature for 15 min followed by 18 h incubation at 37° C. overnight with 5% CO2. On the next day the medium was removed and the cells were stained with 0.2% (w/v) crystal violet for 10 minutes. The wells were gently rinsed with water, and 33% acetic acid (100 μl/well) was added to extract the retained crystal violet. The absorbance at 570 nm was finally measured.
Tumor necrosis factor-α can cause direct cytotoxicity to the lung fibroblast cell line (L929). Bioassay of TNF α is designated on the basis of this cytotoxicity of TNF α, which can be used for the identification of murine TNF α activity in tissue culture supernatants. Culture supernatant collected from the synthetic molecules treated well containing LPS stimulated macrophage modulated the extent of cytotoxicity to the L929 cells (see Table 1).

Molecules are shown by their SMILES.

Turning to `C=CCc1ccc(OC(=O)c2ccc(O)c(OC)c2)c(OC)c1` [compound 13, 4-allyl-2-methoxyphenyl 4-hydroxy-3-methoxybenzoate], the “CONCENTRATION OF NITRITE μM ± SD” value in the experiment on RAW 264.7 cells was determined as 8.004 ± 0.379 µM. Besides, the viability at 10 µM in the experiment with TNFα was 50.6 ± 1.6%.

Turning to `COC(=O)c1ccccc1OC(=O)/C=C/c1ccc(O)c(O)c1` [compound 3, Methyl 2-{[(2E)-3-(3,4-dihydroxyphenyl)prop-2-enoyl]oxy}benzoate], the “CONCENTRATION OF NITRITE μM ± SD” value in the experiment on RAW 264.7 cells stood at 3.022 ± 0.300 µM. In addition, the viability at 10 µM with TNFα worked out at 67 ± 2.3%.

With `COC(=O)/C=C/c1ccc(OC(=O)c2ccc(O)c(OC)c2)c(OC)c1` [compound 11, 2-methoxy-4-[(1E)-3-methoxy-3-oxoprop-1-en-1yl]phenyl 4-hydroxy-3-methoxybenzoate], the “CONCENTRATION OF NITRITE μM ± SD” value in the experiment on RAW 264.7 cells turned out to be 5.604 ± 0.668 µM. Moreover, the viability at 10 µM in the experiment on TNFα worked out at 52.4 ± 1.51%.

With `COc1cc([C@@H]2Oc3c(O)cc(/C=C/C(=O)O)cc3[C@H]2C(=O)O)ccc1O` [compound 28, 5-[(E)-2-carboxyvinyl]-7-hydroxy-2β-(4-hydroxy-3-methoxyphenyl)-2,3-dihydro-1-benzofuran-3α-carboxylic acid], in the experiment with RAW 264.7 cells, the “CONCENTRATION OF NITRITE μM ± SD” value was determined as 7.604 ± 0.204 µM. Moreover, the viability at 10 µM with TNFα worked out at 66.4 ± 1.11%.
